# Experimental data published in patent publication US20240384350A1, “METHODS OF TREATING CANCER WITH KINASE INHIBITORS” (BOARD OF REGENTS, THE UNIVERSITY OF TEXAS SYSTEM, priority 2021, published 2024).
# Legend:
# Assay in all cases: Ba/F3 drug screening, Cell Titer Glo, IC50 Mut/WT
# Format in all cases: cell-based
# EGFR S768dupSVD V769M = target: T1, EGFR S768dupSVD V769M (Homo sapiens, UniProt P00533, INS768MDS/V769M); details: Ex20, 72 hours
# T1 construct: expressed in transfected cells; host or cells: Ba/F3 cells, retroviral pBabe-Puro vector (vector made by GeneScript from EGFR S768dupSVD, c.2305G > A)
# EGFR L718Q = target: T2, EGFR L718Q (Homo sapiens, UniProt P00533, L718Q); details: Ba/F3 cells, EGFR L718Q (PACC), Mut/WT
# T2 construct: expressed in transfected cells; host or cells: Ba/F3
# EGFR E709_T710del insD = target: T3, EGFR E709_T710del insD (Homo sapiens, UniProt P00533, DEL709-709/T710D); details: Ba/F3 cells, EGFR E709_T710del insD (PACC), Mut/WT
# T3 construct: expressed in transfected cells; host or cells: Ba/F3
# EGFR G719A L861Q = target: T4, EGFR G719A L861Q (Homo sapiens, UniProt P00533, G719A/L861Q); details: Ba/F3 cells, EGFR G719A L861Q (PACC), Mut/WT
# T4 construct: expressed in transfected cells; host or cells: Ba/F3
# Method: (§1) Data represent the ratio of the IC50 value for a given TKI for cells with a PACC EGFR mutation to the IC50 value for cells with wildtype EGFR.
# (§2) Ba/F3 cell generation, drug screening, and IC50 approximations. Ba/F3 cells were obtained as a gift from Dr. Gordon Mills (MD Anderson Cancer Center), and maintained in RPMI (Sigma) containing 10% FBS, 1% penicillin/streptomycin, and 10 ng/ml recombinant mIL-3 (R&D Biosystems). To establish stable Ba/F3 cell lines, Ba/F3 cells were transduced with retroviruses containing mutant EGFR plasmids for 12-24 hours.
# (§3) After 48-72 hours of transduction, 2 μg/ml puromycin (Invitrogen) was added to Ba/F3 cell lines in complete RPMI. To select for EGFR positive cell lines, cells were stained with PE-EGFR (Biolegend) and sorted by FACS. After sorting, EGFR positive cells were maintained in RPMI containing 10% FBS, 1% penicillin/streptomycin, and 1 ng/ml EGF to support cell viability. Drug screening was performed as previously described^41,42. Shortly, cells were plated in 384-well plates (Greiner Bio-One) at 2000-3000 cells per well in technical triplicate. Seven different concentrations of TKIs or DMSO vehicle were added to reach a final volume of 40 μL per well. After 72 hours, 11 μL of Cell Titer Glo (Promega) was added to each well. Plates were incubated for a minimum of 10 minutes, and bioluminescence was determined using a FLUOstar OPTIMA plate reader (BMG LABTECH). Raw bioluminescence values were normalized to DMSO control treated cells, and values were plotted in GraphPad Prism. […] Drug screens were performed in technical triplicate on each plate and either duplicate or triplicate biological replicates.
# EGFR L858R S784F = target: T5, EGFR L858R S784F (Homo sapiens, UniProt P00533, L858R/S784F); details: Classical-Like, 72 hours
# T5 construct: expressed in transfected cells; host or cells: Ba/F3 cells, retroviral pBabe-Puro vector (vector made by GeneScript from EGFR L858R)
# EGFR L858R = target: T6, EGFR L858R (Homo sapiens, UniProt P00533, L858R); details: Classical-Like, 72 hours
# T6 construct: expressed in transfected cells; host or cells: Ba/F3 cells, retroviral pBabe-Puro vector
# EGFR Ex19del G796S = target: T7, EGFR Ex19del G796S (Homo sapiens, UniProt P00533, DEL746-750/G796S); details: Ba/F3 cells, EGFR Ex19del G796S (PACC), Mut/WT
# T7 construct: expressed in transfected cells; host or cells: Ba/F3
# Method: as §1, §2, §3
# EGFR L861R = target: T8, EGFR L861R (Homo sapiens, UniProt P00533, L861R); details: Classical-Like, 72 hours
# T8 construct: expressed in transfected cells; host or cells: Ba/F3 cells, retroviral pBabe-Puro vector (vector made by GeneScript from EGFR WT)
# Method: (§4) Data represent the ratio of the IC50 value for a given TKI for cells with a classical-like EGFR mutation to the IC50 value for cells with wildtype EGFR.
# as §2
# (§5) After 48-72 hours of transduction, 2 μg/ml puromycin (Invitrogen) was added to Ba/F3 cell lines in complete RPMI. To select for EGFR positive cell lines, cells were stained with PE-EGFR (Biolegend) and sorted by FACS. After sorting, EGFR positive cells were maintained in RPMI containing 10% FBS, 1% penicillin/streptomycin, and 1 ng/ml EGF to support cell viability. […] Shortly, cells were plated in 384-well plates (Greiner Bio-One) at 2000-3000 cells per well in technical triplicate. Seven different concentrations of TKIs or DMSO vehicle were added to reach a final volume of 40 μL per well. After 72 hours, 11 μL of Cell Titer Glo (Promega) was added to each well. Plates were incubated for a minimum of 10 minutes, and bioluminescence was determined using a FLUOstar OPTIMA plate reader (BMG LABTECH). Raw bioluminescence values were normalized to DMSO control treated cells, and values were plotted in GraphPad Prism. […] Drug screens were performed in technical triplicate on each plate and either duplicate or triplicate biological replicates.
# EGFR Ex19del T790M C797S = target: T9, EGFR Ex19del T790M C797S (Homo sapiens, UniProt P00533, C797S/DEL746-750/T790M); details: T790M-like-3R, 72 hours
# T9 construct: expressed in transfected cells; host or cells: Ba/F3
# Method: (§6) Data represent the ratio of the IC50 value for a given TKI for cells with a T790M-like-3R EGFR mutation to the IC50 value for cells with wildtype EGFR.
# as §2
# (§7) After 48-72 hours of transduction, 2 μg/ml puromycin (Invitrogen) was added to Ba/F3 cell lines in complete RPMI. To select for EGFR positive cell lines, cells were stained with PE-EGFR (Biolegend) and sorted by FACS. After sorting, EGFR positive cells were maintained in RPMI containing 10% FBS, 1% penicillin/streptomycin, and 1 ng/ml EGF to support cell viability. […] Shortly, cells were plated in 384-well plates (Greiner Bio-One) at 2000-3000 cells per well in technical triplicate. Seven different concentrations of TKIs or DMSO vehicle were added to reach a final volume of 40 μL per well. After 72 hours, 11 μL of Cell Titer Glo (Promega) was added to each well. Plates were incubated for a minimum of 10 minutes, and bioluminescence was determined using a FLUOstar OPTIMA plate reader (BMG LABTECH). Raw bioluminescence values were normalized to DMSO control treated cells, and values were plotted in GraphPad Prism. […] Drug screens were performed in technical triplicate on each plate and either duplicate or triplicate biological replicates. […] Statistical differences between groups were determined by ANOVA as described in the figure legends.
# EGFR R776H = target: T10, EGFR R776H (Homo sapiens, UniProt P00533, R776H); details: Ba/F3 cells, EGFR R776H (PACC), Mut/WT
# T10 construct: host or cells: Ba/F3
# Method: as §1, §2, §3
# EGFR L833F = target: T11, EGFR L833F (Homo sapiens, UniProt P00533, L833F); details: Classical-Like, 72 hours
# T11 construct: expressed in transfected cells; host or cells: Ba/F3 cells, retroviral pBabe-Puro vector
# EGFR Ex19del T790M L718V = target: T12, EGFR Ex19del T790M L718V (Homo sapiens, UniProt P00533, DEL746-750/L718V/T790M); details: T790M-like-3S, 72 hours
# T12 construct: expressed in transfected cells; host or cells: Ba/F3
# Method: Data represent the ratio of the IC50 value for a given TKI for cells with a T790M-like-3S EGFR mutation to the IC50 value for cells with wildtype EGFR.
# as §2, §3
# EGFR G719A T790M = target: T13, EGFR G719A T790M (Homo sapiens, UniProt P00533, G719A/T790M); details: T790M-like-3S, 72 hours
# T13 construct: expressed in transfected cells; host or cells: Ba/F3
# EGFR Ex19del G724S = target: T14, EGFR Ex19del G724S (Homo sapiens, UniProt P00533, DEL746-750/G724S); details: Ba/F3 cells, EGFR Ex19del G724S (PACC), Mut/WT
# T14 construct: expressed in transfected cells; host or cells: Ba/F3
# Method: as §1, §2, §3
# EGFR L858R T790M L718V = target: T15, EGFR L858R T790M L718V (Homo sapiens, UniProt P00533, L718V/L858R/T790M); details: T790M-like-3R, 72 hours
# T15 construct: expressed in transfected cells; host or cells: Ba/F3
# EGFR L858R/T790M/C797S = target: T16, EGFR L858R/T790M/C797S (Homo sapiens, UniProt P00533, C797S/L858R/T790M); details: T790M-like-3R, 72 hours
# T16 construct: expressed in transfected cells; host or cells: Ba/F3
# Method: as §6, §2, §7
# EGFR Ex19del = target: T17, EGFR Ex19del (Homo sapiens, UniProt P00533, DEL746-750); details: Classical-Like, 72 hours
# T17 construct: expressed in transfected cells; host or cells: Ba/F3 cells, retroviral pBabe-Puro vector
# Method: as §4, §2, §5
# EGFR L858R/T790M = target: T18, EGFR L858R/T790M (Homo sapiens, UniProt P00533, L858R/T790M); details: T790M-like-3S, 72 hours
# T18 construct: expressed in transfected cells; host or cells: Ba/F3
# EGFR L718Q T790M = target: T19, EGFR L718Q T790M (Homo sapiens, UniProt P00533, L718Q/T790M); details: T790M-like-3R, 72 hours
# T19 construct: expressed in transfected cells; host or cells: Ba/F3
# Method: as §6, §2, §7
# EGFR T725M = target: T20, EGFR T725M (Homo sapiens, UniProt P00533, T725M); details: Classical-Like, 72 hours
# T20 construct: expressed in transfected cells; host or cells: Ba/F3 cells, retroviral pBabe-Puro vector (vector made by GeneScript from EGFR WT)
# Method: as §4, §2, §5
# EGFR R776C = target: T21, EGFR R776C (Homo sapiens, UniProt P00533, R776C); details: Ba/F3 cells, EGFR R776C (PACC), Mut/WT
# T21 construct: host or cells: Ba/F3
# EGFR I740dupIPVAK = details: Ba/F3 cells, EGFR I740dupIPVAK (PACC), Mut/WT
# EGFR Ex19del T790M = target: T22, EGFR Ex19del T790M (Homo sapiens, UniProt P00533, DEL746-750/T790M); details: T790M-like-3S, 72 hours
# T22 construct: expressed in transfected cells; host or cells: Ba/F3
# EGFR S768I V774M = target: T23, EGFR S768I V774M (Homo sapiens, UniProt P00533, S768I/V774M); details: Ba/F3 cells, EGFR S768I V774M (PACC), Mut/WT
# T23 construct: host or cells: Ba/F3
# EGFR A763insFQEA = target: T24, EGFR A763insFQEA (Homo sapiens, UniProt P00533, INS763FQEA); details: Classical-Like, 72 hours
# T24 construct: expressed in transfected cells; host or cells: Ba/F3 cells, retroviral pBabe-Puro vector
# EGFR L858R L718Q = target: T25, EGFR L858R L718Q (Homo sapiens, UniProt P00533, L718Q/L858R); details: Ba/F3 cells, EGFR L858R L718Q (PACC), Mut/WT
# T25 construct: host or cells: Ba/F3
smiles,measurement,setting,value
C=CC(=O)Nc1cccc(Oc2nc(Nc3ccc(N4CCN(C)CC4)cc3)nc3ccsc23)c1 [Olmutinib],ratio of IC50 for cells with mutant EGFR to IC50 for cells with wildtype EGFR (Mut/WT),EGFR S768dupSVD V769M,0.5379
same,ratio of the IC50 value for cells with a PACC EGFR mutation to the IC50 value for cells with wildtype EGFR,EGFR L718Q,3.977
same,ratio of the IC50 value for cells with a PACC EGFR mutation to the IC50 value for cells with wildtype EGFR,EGFR E709_T710del insD,0.2299
same,ratio of the IC50 value for cells with a PACC EGFR mutation to the IC50 value for cells with wildtype EGFR,EGFR G719A L861Q,0.07388
same,ratio of IC50 for cells with mutant EGFR to IC50 for cells with wildtype EGFR (Mut/WT),EGFR L858R S784F,0.04569
same,ratio of IC50 for cells with mutant EGFR to IC50 for cells with wildtype EGFR (Mut/WT),EGFR L858R,0.01716
same,ratio of the IC50 value for cells with a PACC EGFR mutation to the IC50 value for cells with wildtype EGFR,EGFR Ex19del G796S,0.8234
same,ratio of IC50 for cells with mutant EGFR to IC50 for cells with wildtype EGFR (Mut/WT),EGFR L861R,0.02937
same,ratio of IC50 for cells with mutant EGFR to IC50 for cells with wildtype EGFR (Mut/WT),EGFR Ex19del T790M C797S,1.926
same,ratio of the IC50 value for cells with a PACC EGFR mutation to the IC50 value for cells with wildtype EGFR,EGFR R776H,0.1146
same,ratio of IC50 for cells with mutant EGFR to IC50 for cells with wildtype EGFR (Mut/WT),EGFR L833F,0.1289
same,ratio of IC50 for cells with mutant EGFR to IC50 for cells with wildtype EGFR (Mut/WT),EGFR Ex19del T790M L718V,0.02165
same,ratio of IC50 for cells with mutant EGFR to IC50 for cells with wildtype EGFR (Mut/WT),EGFR G719A T790M,0.0114
same,ratio of the IC50 value for cells with a PACC EGFR mutation to the IC50 value for cells with wildtype EGFR,EGFR Ex19del G724S,0.268
same,ratio of IC50 for cells with mutant EGFR to IC50 for cells with wildtype EGFR (Mut/WT),EGFR L858R T790M L718V,0.8754
same,ratio of IC50 for cells with mutant EGFR to IC50 for cells with wildtype EGFR (Mut/WT),EGFR L858R/T790M/C797S,4.111
same,ratio of IC50 for cells with mutant EGFR to IC50 for cells with wildtype EGFR (Mut/WT),EGFR Ex19del,0.0008432
same,ratio of IC50 for cells with mutant EGFR to IC50 for cells with wildtype EGFR (Mut/WT),EGFR L858R/T790M,0.0007936
same,ratio of IC50 for cells with mutant EGFR to IC50 for cells with wildtype EGFR (Mut/WT),EGFR L718Q T790M,0.3579
same,ratio of IC50 for cells with mutant EGFR to IC50 for cells with wildtype EGFR (Mut/WT),EGFR T725M,0.03664
same,ratio of the IC50 value for cells with a PACC EGFR mutation to the IC50 value for cells with wildtype EGFR,EGFR R776C,0.5131
same,ratio of the IC50 value for cells with a PACC EGFR mutation to the IC50 value for cells with wildtype EGFR,EGFR I740dupIPVAK,0.1715
same,ratio of IC50 for cells with mutant EGFR to IC50 for cells with wildtype EGFR (Mut/WT),EGFR Ex19del T790M,0.0004059
same,ratio of the IC50 value for cells with a PACC EGFR mutation to the IC50 value for cells with wildtype EGFR,EGFR S768I V774M,0.1109
same,ratio of IC50 for cells with mutant EGFR to IC50 for cells with wildtype EGFR (Mut/WT),EGFR A763insFQEA,0.02753
same,ratio of the IC50 value for cells with a PACC EGFR mutation to the IC50 value for cells with wildtype EGFR,EGFR L858R L718Q,2.324
